{"source": "patent US9480627B2", "about": "“Long term bacteriostatic compounds and their use in restorative dental materials” (priority 2010, dated 2016)", "assay": "Storage stability in sealed container in 37 C oven for nine months", "conditions": "nine month storage period", "source_text": "These ingredients were blended together until homogenous and were allowed to remain in a sealed container in a 37 C oven for nine months.", "data": [{"substance": "Zinc pyrithione", "values": [{"measurement": "stability with acrylic dental adhesives (premature cure on storage)", "value": "does not cure"}]}]}
